In data set [1] the target is T1, RNA-binding protein pos-1 (Caenorhabditis elegans, UniProt G5EF15).
T1 sequence (G5EF15 whole entry): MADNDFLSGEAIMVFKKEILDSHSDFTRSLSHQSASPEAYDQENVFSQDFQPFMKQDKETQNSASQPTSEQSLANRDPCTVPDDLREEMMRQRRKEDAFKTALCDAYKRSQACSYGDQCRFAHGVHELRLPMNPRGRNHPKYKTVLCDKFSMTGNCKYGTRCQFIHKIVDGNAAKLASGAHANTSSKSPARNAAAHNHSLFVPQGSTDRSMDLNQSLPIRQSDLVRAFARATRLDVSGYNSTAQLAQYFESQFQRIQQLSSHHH
Kind of data set: inhibitors of POS-1/mex-3 RNA binding, dose response, biochemical, fluorescence polarization (AID 1964).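 Further: purified POS-1 fused to maltose binding protein made in E. coli; potency of compounds blocking POS-1 binding to fluorescent RNA.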 In general terms: Polarisation of emitted light reports the rotation of a fluorescent probe.

Data set [2] concerns the target T2, Zinc finger protein mex-5 (Caenorhabditis elegans, UniProt Q9XUB2).
T2 sequence (Q9XUB2 whole entry): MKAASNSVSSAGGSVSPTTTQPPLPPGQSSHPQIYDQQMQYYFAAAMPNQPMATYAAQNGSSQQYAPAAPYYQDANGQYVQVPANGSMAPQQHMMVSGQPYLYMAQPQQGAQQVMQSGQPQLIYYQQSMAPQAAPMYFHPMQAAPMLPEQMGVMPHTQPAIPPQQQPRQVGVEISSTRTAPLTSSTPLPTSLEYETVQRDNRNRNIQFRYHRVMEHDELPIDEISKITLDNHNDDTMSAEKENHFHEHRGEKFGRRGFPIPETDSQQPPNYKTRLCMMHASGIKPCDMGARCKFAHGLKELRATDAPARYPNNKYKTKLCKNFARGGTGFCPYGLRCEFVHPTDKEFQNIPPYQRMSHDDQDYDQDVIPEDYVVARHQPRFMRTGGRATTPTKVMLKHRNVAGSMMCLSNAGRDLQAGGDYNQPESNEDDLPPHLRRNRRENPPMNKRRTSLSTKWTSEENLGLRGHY
Kind of data set: MEX-5/TCR-2 RNA interaction inhibitors, dose response, biochemical, C. elegans, fluorescence polarization (AID 1960).

Data set [3] has as its target UDP-galactopyranose mutase (Mycobacterium tuberculosis, UniProt P9WIQ1). The data set can be described thus: Inhibitors of Mycobacterium tuberculosis UDP-galactopyranose mutase (UGM) enzyme Measured in Biochemical System Using Plate Reader - 2105-02_Inhibitor_Dose_CherryPick_Activity. [Related pubchem assays (depositor defined):AID504439].
In a further data set the target is Cytochrome P450 2C19 (Homo sapiens, UniProt P33261). Kind of data set: Cytochrome panel assay with activity outcomes. Panel member name: p450-cyp2c19 Compounds with AC50 equal or less than 10 uM are considered active. Conditions: read-out: AC50. It is filed as functional.
For a further data set, the target named is T3, Cytochrome P450 1A2 (Homo sapiens, UniProt P05177).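 Further: PubChem cytochrome P450 panel assay, CYP1A2 panel member.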
T3 sequence (P05177 whole entry): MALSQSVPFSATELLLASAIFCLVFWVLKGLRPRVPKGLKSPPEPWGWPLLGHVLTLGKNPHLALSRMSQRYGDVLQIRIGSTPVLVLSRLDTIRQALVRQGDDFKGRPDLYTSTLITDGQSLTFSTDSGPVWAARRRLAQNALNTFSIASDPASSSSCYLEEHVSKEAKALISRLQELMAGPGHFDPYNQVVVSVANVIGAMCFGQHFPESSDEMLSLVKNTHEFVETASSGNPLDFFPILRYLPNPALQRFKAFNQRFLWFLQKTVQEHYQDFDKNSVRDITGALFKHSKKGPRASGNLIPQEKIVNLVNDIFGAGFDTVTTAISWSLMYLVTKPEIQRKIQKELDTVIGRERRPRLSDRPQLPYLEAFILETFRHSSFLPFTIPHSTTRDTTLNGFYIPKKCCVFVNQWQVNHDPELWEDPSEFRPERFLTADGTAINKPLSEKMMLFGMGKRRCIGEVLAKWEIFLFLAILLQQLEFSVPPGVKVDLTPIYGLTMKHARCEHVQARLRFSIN

The next data set concerns the target Cytochrome P450 2D6 (Homo sapiens, UniProt P10635).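 Further: CYP2D6 member of a cytochrome P450 panel assay.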
For the next data set, the target named is Beta-galactosidase (Escherichia coli, UniProt Q8VNN2). The data set can be described thus: beta-galactosidase enzyme inhibitors and activators, dose response, artefact control for CCR6 antagonist project, biochemical, E. coli enzyme, set 3 (AID 504712). It is filed as functional.
Sequence of Beta-galactosidase (Q8VNN2 whole entry, the tested form may be a part): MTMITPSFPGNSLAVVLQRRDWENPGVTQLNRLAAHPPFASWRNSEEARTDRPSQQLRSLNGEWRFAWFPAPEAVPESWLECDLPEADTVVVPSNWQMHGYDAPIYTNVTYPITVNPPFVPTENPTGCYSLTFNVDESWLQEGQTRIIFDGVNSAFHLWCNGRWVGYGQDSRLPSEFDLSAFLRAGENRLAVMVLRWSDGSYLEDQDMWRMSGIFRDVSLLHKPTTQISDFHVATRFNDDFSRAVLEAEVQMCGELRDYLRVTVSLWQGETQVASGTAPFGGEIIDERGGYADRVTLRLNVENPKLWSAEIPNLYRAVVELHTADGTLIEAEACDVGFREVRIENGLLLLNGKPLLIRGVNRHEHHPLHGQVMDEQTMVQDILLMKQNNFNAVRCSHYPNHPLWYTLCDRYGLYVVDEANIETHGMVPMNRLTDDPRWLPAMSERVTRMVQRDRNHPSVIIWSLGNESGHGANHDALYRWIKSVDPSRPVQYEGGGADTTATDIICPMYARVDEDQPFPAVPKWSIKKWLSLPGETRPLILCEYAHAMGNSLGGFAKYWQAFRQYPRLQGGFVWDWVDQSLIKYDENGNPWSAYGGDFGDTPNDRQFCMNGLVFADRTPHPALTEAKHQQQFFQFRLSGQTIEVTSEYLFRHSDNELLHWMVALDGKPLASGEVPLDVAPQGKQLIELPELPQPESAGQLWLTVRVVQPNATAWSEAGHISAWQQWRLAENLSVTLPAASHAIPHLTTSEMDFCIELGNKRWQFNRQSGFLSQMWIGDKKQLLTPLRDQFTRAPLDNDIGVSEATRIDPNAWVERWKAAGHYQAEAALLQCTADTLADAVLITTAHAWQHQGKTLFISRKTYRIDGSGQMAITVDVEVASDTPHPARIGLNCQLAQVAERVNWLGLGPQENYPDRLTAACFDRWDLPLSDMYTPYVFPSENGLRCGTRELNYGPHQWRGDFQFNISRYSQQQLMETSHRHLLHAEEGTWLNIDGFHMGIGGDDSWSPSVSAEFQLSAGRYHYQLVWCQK
In the next data set the target is Apelin receptor (Homo sapiens, UniProt P35414). The data set can be described thus: APJ beta-arrestin recruitment antagonism, SAR follow-up, selectivity assay for CCR6 antagonist project, cell-based, luminescent, enzyme-fragment complementation (AID 588359). Type of data set: functional. (In general: Arrestin recruitment assays detect the binding of arrestin to an activated receptor.)

A further data set has as its target Keap1/Nrf2 (Homo sapiens, UniProt Q14145). Kind of data set: Keap1-Nrf2 protein-protein interaction inhibitors, dose response, biochemical, fluorescence polarization, cherry-picked samples (AID 588683).
The nature of data set [4]: inhibitors of firefly luciferase expression or activity, dose response, H4 neuroglioma cells, luminescence (AID 1990). It is filed as functional, cell-based.
In data set [5] the test system is Streptococcus sp. 'group A'. Kind of data set: growth inhibition of control SK(-) GAS strain, dose response, counter-screen for streptokinase expression inhibitor project, luminescence, kanamycin, BacTiterGlo, confirmation (AID 1900). Type of data set: functional, organism-based. (In general: The purpose of a counterscreen is to sort out artefacts and off-target activity.)

The nature of data set [6]: Luminescence Cell-Based Dose Response HTS to Identify Inhibitors of 5'UTR Stem-Loop Driven Prion Protein mRNA Translation in H4 Neuroglioblastoma Cells. [Related pubchem assays: 1827 (Project Summary), 1813 (Primary HTS)]. It is filed as functional.
Data set [7] is described as follows: inhibitors of SNCA 5'UTR-driven reporter translation, confirmation, H4 neuroglioma cells, luminescence (AID 1988). It is filed as functional, cell-based.
For another data set, the target named is T4, Streptokinase A (Streptococcus pyogenes serotype M1, UniProt P10520).
T4 sequence (P10520 whole entry): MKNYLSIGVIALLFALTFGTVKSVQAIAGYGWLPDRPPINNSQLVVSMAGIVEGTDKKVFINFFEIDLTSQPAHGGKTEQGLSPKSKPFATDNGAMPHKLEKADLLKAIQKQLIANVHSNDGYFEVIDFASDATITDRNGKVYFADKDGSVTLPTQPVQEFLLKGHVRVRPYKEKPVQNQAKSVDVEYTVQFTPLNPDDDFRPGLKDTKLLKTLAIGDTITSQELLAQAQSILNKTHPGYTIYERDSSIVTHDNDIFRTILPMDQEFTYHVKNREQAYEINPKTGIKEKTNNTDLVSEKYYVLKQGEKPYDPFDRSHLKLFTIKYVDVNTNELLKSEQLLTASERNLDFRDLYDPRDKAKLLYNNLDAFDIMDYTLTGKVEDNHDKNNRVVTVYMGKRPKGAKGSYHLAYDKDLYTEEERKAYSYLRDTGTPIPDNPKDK
Kind of data set: S. pyogenes streptokinase expression inhibitors, potency, dose response, plasminogen activation absorbance, OD405 (AID 1914).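 Further: secreted streptokinase activity via plasminogen activation per viability signal from cell pellet.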 It is filed as functional, Streptococcus pyogenes M1 GAS.

Data set [8] in a line: microbe, parasite or virus in culture. It is filed as functional. The note with it: Mycobacterium tuberculosis.
A further data set deals with Streptococcus. Kind of data set: Group A Streptococcus viability loss, dose response, counter-screen for streptokinase expression inhibitor project, luminescence, BacTiterGlo (AID 1915).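 Further: potency for reduction of bacterial viability or growth.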 It is filed as functional, organism-based.
The target of data set [9] is C-C chemokine receptor type 6 (Homo sapiens, UniProt P51684). Kind of data set: CCR6 receptor antagonists, dose response, cell-based, luminescent beta-arrestin readout (AID 504728). Type of data set: functional.
Sequence of C-C chemokine receptor type 6 (P51684 whole entry): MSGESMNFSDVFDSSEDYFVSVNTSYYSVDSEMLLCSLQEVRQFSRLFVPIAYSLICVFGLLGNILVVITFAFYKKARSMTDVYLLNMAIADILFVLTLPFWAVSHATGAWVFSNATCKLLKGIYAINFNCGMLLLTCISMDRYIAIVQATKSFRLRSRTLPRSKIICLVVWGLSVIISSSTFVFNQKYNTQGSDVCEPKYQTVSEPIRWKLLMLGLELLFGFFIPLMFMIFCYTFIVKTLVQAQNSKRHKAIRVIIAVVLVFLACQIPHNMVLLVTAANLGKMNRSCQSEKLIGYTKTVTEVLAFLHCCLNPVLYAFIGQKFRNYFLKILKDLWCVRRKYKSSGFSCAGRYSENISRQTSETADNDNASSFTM
A further data set relates to INS1. Kind of data set: beta cell apoptosis inhibitors, cytokine rescue, dose response, luminescence, retest (AID 449756).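 Further: cell death triggered by IL-1 beta plus TNF-alpha plus IFN-gamma mixture; protective hits raise ATP signal compared with cytokine alone wells.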 Type of data set: functional, cell-based. The note with it: Rattus norvegicus.
The test system of data set [10] is HEK293. The data set can be described thus: cells. The note with it: Homo sapiens.
Data set [11] concerns HEK293. The data set can be described thus: cells. Conditions: Homo sapiens. This is another data set of the same source.
Data set [12] concerns the target Induced myeloid leukemia cell differentiation protein Mcl-1 (Homo sapiens, UniProt Q07820). Type of data set: functional.
The target of data set [13] is Intestinal-type alkaline phosphatase (Mus musculus, UniProt P24822). The data set can be described thus: PubChem AID 488874. Type of data set: functional.
Sequence of Intestinal-type alkaline phosphatase (Mus musculus, UniProt P24822) (P24822 whole entry): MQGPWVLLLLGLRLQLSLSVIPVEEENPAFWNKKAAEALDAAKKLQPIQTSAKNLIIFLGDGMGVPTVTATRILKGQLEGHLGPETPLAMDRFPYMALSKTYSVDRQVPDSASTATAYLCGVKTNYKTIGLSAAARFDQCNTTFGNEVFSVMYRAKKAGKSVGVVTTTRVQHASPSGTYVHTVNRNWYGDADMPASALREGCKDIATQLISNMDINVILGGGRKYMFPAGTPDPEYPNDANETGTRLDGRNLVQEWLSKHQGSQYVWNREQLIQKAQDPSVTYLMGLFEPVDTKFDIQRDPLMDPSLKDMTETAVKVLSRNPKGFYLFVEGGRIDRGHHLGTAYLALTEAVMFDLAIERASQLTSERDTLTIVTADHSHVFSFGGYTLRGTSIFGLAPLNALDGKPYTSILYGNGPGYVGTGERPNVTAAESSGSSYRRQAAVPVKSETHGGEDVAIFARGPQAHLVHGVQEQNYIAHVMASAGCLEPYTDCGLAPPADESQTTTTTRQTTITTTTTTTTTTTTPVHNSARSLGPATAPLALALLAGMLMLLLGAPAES
The target of data set [14] is T5, Intestinal-type alkaline phosphatase (Homo sapiens, UniProt P09923). Kind of data set: human intestinal alkaline phosphatase activators, dose response, biochemical, luminescence, uHTS hits (AID 463120). Type of data set: functional.
T5 sequence (P09923 whole entry): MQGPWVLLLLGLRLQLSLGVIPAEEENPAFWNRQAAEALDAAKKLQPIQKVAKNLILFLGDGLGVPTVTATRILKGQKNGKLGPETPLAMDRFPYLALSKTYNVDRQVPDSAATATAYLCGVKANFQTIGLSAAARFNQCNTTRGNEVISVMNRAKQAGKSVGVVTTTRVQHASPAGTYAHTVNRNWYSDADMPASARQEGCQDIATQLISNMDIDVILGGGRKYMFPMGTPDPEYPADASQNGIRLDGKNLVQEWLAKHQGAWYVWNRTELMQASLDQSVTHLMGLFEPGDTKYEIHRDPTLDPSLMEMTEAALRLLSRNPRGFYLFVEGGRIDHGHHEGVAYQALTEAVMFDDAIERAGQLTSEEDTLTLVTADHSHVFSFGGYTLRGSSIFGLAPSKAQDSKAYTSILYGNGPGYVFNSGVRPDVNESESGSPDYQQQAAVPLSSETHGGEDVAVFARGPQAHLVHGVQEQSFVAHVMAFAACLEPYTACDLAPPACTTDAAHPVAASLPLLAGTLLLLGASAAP
For the next data set, the target named is Nonstructural protein 1 (Influenza A virus, UniProt Q194T2). It is filed as functional, Influenza A virus (A/California/07/2009(H1N1)).
Sequence of Nonstructural protein 1 (Q194T2 whole entry): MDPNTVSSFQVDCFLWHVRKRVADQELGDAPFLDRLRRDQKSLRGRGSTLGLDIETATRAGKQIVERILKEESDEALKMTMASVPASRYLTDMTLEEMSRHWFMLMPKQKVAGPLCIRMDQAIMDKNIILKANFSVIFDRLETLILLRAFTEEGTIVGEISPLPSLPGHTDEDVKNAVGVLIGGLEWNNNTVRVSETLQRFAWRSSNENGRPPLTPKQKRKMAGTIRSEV
For data set [15], the target named is T5, Intestinal-type alkaline phosphatase. Kind of data set: human IAP activators, dose response, biochemical, luminescent, uHTS hits, set 2 (AID 488817).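 Further: potency of activators that raise enzyme activity.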 It is filed as functional.
Data set [16] has as its target T6, Alkaline phosphatase, tissue-nonspecific isozyme (Homo sapiens, UniProt P05186).
T6 sequence (P05186 whole entry): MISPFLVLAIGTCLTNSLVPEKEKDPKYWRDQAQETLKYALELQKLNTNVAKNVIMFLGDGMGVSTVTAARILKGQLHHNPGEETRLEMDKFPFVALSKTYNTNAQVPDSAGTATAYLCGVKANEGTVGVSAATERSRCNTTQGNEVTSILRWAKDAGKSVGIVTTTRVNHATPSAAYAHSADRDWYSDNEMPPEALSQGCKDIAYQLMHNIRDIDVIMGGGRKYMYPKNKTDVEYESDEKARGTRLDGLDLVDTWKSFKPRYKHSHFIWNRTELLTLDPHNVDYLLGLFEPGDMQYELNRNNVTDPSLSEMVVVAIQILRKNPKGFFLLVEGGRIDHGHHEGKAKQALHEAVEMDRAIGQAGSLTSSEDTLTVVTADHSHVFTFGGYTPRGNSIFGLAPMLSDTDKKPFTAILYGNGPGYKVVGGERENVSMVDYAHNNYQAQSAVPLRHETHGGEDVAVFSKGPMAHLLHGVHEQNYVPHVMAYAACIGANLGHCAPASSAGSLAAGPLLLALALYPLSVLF
The data set can be described thus: inhibition of tissue-nonspecific alkaline phosphatase – biochemical, dose response (AID 488882). It is filed as functional.

Data set [17] is described as follows: HeLa cell cytotoxicity, dose response, cytotoxicity control for MgcRacGAP inhibitor project (AID 624300). It is filed as functional.
For data set [18], the target named is T7, Rac GTPase-activating protein 1 (Homo sapiens, UniProt Q9H0H5).
T7 sequence (Q9H0H5 whole entry): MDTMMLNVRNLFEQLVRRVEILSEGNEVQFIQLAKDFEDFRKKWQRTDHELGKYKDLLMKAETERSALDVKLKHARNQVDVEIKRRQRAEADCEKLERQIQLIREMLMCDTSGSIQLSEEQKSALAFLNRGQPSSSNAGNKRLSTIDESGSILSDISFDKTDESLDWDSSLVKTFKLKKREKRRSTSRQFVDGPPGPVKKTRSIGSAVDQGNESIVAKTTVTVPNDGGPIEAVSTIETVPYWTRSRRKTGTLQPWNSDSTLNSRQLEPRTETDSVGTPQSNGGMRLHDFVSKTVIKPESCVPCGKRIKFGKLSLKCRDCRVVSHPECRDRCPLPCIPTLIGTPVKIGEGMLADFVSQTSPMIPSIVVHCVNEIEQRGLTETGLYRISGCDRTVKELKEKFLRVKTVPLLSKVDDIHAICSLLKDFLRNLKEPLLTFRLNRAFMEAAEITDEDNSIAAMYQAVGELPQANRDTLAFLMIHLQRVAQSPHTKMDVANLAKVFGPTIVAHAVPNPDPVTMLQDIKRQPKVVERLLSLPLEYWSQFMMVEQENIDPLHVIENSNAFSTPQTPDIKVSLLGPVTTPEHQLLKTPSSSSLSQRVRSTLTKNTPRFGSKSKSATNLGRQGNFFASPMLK
Kind of data set: MgcRacGAP GTPase-activating activity inhibitors, confirmation, biochemical, ADP Hunter fluorescence, primary and confirmatory (AID 624330). Type of data set: functional.

Data on six compounds can be found in ChEMBL document CHEMBL1201862, “PubChem BioAssay data set” (2004).

Structures are written as SMILES. Active and inactive are the calls of the source.

Sequence of Keap1/Nrf2 (Q16236 whole entry): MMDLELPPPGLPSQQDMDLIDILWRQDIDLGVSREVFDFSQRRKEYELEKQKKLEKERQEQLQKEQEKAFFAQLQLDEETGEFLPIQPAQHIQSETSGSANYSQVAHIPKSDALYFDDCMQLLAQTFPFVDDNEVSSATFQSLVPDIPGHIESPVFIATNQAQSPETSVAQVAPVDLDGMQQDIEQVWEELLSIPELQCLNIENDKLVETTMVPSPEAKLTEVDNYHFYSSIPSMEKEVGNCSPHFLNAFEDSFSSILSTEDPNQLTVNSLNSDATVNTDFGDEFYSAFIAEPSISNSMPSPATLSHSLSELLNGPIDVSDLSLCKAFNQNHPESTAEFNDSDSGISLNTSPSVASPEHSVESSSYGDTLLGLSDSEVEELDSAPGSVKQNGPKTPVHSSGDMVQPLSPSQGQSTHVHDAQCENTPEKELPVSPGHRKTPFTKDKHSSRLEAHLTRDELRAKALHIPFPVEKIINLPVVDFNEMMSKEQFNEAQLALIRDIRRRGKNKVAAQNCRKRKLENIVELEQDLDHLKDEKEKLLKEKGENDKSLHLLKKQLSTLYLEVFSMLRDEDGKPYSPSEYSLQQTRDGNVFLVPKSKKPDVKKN
Sequence of Keap1/Nrf2 (Q14145 whole entry): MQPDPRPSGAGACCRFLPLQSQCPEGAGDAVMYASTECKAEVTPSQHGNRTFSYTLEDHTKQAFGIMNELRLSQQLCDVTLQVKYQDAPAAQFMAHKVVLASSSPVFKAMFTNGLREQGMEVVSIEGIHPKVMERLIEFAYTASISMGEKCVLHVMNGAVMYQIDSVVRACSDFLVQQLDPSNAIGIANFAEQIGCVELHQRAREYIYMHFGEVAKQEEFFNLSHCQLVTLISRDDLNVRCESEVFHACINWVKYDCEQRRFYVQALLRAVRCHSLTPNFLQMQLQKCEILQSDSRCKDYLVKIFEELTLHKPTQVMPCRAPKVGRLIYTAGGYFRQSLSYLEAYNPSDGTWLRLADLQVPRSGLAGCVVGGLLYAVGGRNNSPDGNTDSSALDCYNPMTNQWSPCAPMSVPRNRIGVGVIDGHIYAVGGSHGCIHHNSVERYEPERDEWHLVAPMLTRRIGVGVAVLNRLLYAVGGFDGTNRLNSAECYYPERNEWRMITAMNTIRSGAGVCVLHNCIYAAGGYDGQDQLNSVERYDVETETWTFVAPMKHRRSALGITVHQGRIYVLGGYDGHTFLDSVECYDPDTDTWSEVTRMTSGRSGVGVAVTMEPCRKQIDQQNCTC
Sequence of Cytochrome P450 2D6 (P10635 whole entry): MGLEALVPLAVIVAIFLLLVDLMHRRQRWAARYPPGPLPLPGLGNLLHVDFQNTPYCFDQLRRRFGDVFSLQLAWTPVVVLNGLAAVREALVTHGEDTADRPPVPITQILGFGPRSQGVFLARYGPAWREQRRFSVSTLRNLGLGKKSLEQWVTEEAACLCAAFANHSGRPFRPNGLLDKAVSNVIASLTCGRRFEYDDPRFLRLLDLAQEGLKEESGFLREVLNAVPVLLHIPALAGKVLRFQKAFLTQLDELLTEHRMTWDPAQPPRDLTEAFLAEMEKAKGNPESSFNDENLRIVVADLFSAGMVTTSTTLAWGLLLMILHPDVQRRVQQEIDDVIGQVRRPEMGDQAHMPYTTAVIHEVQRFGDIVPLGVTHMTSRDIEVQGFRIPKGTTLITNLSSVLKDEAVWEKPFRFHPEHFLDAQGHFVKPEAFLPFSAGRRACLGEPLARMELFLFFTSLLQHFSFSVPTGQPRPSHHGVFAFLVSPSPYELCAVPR
Sequence of Induced myeloid leukemia cell differentiation protein Mcl-1 (Q07820 whole entry): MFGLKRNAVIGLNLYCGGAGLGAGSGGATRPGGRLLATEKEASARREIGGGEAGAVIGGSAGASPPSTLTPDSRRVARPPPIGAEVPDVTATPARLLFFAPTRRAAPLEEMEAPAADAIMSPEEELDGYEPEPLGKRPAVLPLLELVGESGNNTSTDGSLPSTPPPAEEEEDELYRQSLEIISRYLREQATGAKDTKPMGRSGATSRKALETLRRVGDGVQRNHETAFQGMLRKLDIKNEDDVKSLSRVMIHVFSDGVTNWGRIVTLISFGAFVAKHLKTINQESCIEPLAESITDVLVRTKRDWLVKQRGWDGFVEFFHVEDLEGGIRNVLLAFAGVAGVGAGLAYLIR

Regarding `COC(=O)Cn1cc(C=C2C(=O)N(C)C(=O)N(C)C2=O)c2ccccc21`, the EC50 in data set [1] was 3.15 µM (inconclusive); in [2], 2.85 µM (inconclusive). Moreover, the AC50 in [3] is 129 µM (active).
`COc1ccc(-c2oc3ccccc3c(=O)c2OC(=O)c2ccc(C)cc2)cc1`: the AC50 on Cytochrome P450 2C19 was 1 µM (inconclusive); on Cytochrome P450 1A2, 1.41 µM (inconclusive); on Cytochrome P450 2D6, “inconclusive”.
Take `CCOC(=O)N1CCN(C(=O)C2CCN(C(=O)c3ccccc3C)CC2)CC1`: the IC50 at Beta-galactosidase and on Apelin receptor was > 66.6 µM (inactive) in each case.
With `Cc1ccc(S(=O)(=O)Nc2cccc(S(=O)(=O)Nc3ccccc3C(=O)O)c2)c(C)c1`, at Keap1/Nrf2, the AC50 was > 52 µM (inactive).
For `COc1cccc(/C=N/Nc2nc(Nc3ccccc3)nc(-n3nc(C)cc3C)n2)c1O`, the EC50 in [4] was 52.9 µM (active); in data set [5], 1.7 µM (active); in data set [6], 0.127 µM (active); in data set [7], 8.28 µM (active); on Streptokinase A, > 150 µM (not active); in the data set with Streptococcus, 4.15 µM (active). The EC50 in the data set on HEK293 [10] and with HEK293 [11] was > 59.6 µM (inactive) in each case. Besides, the CC50 in data set [8] was 8.56 µM (active). Also, the IC50 (in [9]; at Beta-galactosidase) was > 66.6 µM (inactive) each time. The AC50 in the data set on INS1 is 0.535 µM (active).
For `CC1C(=O)NN=C1C(=O)N/N=C\c1ccc(O)cc1O` (centres undefined), the IC50 is 7.72 µM (active) in data set [12]; > 100 µM (inactive) in data set [13]; 15.9 µM (active) on Nonstructural protein 1; 7.32 µM (active) in data set [16]; 45.4 µM (active) in data set [18]. The EC50 was 8.3 µM (active) in data set [14] and 11.3 µM (active) in data set [15]. The CC50 in data set [17] was 100 µM (active).

In general, EC50 refers to the concentration at which the effect is half-maximal. For orientation: AC50 means the concentration at which the activity in the assay is half-maximal. A word on the IC50: it is the concentration at which inhibition is half-maximal.
